Assay results taken from patent US10342796B2, “Acrylanilide derivative, preparation method, and applications thereof in pharmacy” (Ancureall Pharmaceutical (Shanghai) Co., Ltd., priority 2015, dated 2019).
Read-outs that look alike come from different tables or passages of the source.

Assays:
H1975 (EGFR L858R/T790M) = experiment: Growth inhibition GI50 in vitro (CCK8/MTT, 72 h); assay type: cell-based, human; settings: Homo sapiens, NCI-H1975
PC-9 (EGFR dE746-A750) = experiment: Growth inhibition GI50 in vitro (CCK8/MTT, 72 h); assay type: cell-based, human; settings: Homo sapiens
[1] = system: SW48 (EGFR G719S positive); experiment: Growth inhibition GI50 in vitro (CCK8/MTT, 72 h); assay type: cell-based; settings: Homo sapiens, SW48; Table 15; 1000 nM to 0.03 nM serial dilution; read-out: GI50 SW48 (EGFR G719S)
Protocol: PC-9ER is an acquired Erlotinib resistance cell line of PC-9 cells developed by the investor. […] The four cell lines above were cultured with 1×RPMI1640 complete medium (supplement with 10% FBS). Human colon cancer cell line SW48 (EGFR G719S positive, ATCC). was cultured with L15 complete medium (10% FB S).
(§1) The suspension cells were collected by centrifugation. The supernatant was discard and the cell pellet was resuspended and counted. Different cell concentrations (5˜10×10^4 cells/mL) were prepared according to the growth cycle of each cell line and then seeded on a 96-well plate (Corning), 100 μL/well. The cells were incubated over night at 37° C., 5% CO2. The compounds were added to the cells on the second day with 2 wells in parallel. The final concentration of organic solvent shall not exceed 1%. The cells were continually incubated for 72 h, and then subjected to MTT assay.
(§2) The present compounds and the reference compounds were dissolved with DMSO (Sigma), respectively. […] The storage concentration of compounds was 10 mM and kept at −20° C. They were diluted by 2 times or 10 times with serial dilution before using.
(§3) Dojindo CCK8 reagent kit was used as MTT assay. […] FC meter was used as microplate reader.
(§4) Adherent cell culture medium was discard and immediately replaced with fresh prepared medium which contains 10% CCK8 reagent (100 μL/well). For the suspension cells, CCK8 was directly added to 10% of the final concentration. The cells were continually incubated for 1˜4 h. When the color of control wells turned to dark yellow, the absorption value was measured at OD450 nm. The cell growth rate was calculated according to the following formula: cell growth rate (%)=100*(T−T0)/(C−T0), T=optical density of drug treatment cell well—optical density of blank control well; T0=optical density of cell well before drug treatment—optical density of blank control well; C=optical density of cell well of solvent control group—optical density of blank control well. […] The experiment was independently repeated 1˜3 times, and subject to biological statistical analysis.
Each compound started at 1000 nM as an initial concentration and was diluted by […] with serial dilution to 0.03 nM.

N87 (HER2 Amp) = experiment: Growth inhibition GI50 in vitro (CCK8/MTT, 72 h); assay type: cell-based, human; settings: Homo sapiens
Calu-3 (Her2 amp) = experiment: Growth inhibition GI50 in vitro (CCK8/MTT, 72 h); assay type: cell-based; settings: Homo sapiens, Calu-3; Table 16; 1000 nM to 0.03 nM serial dilution; read-out: GI50 Calu3 (HER2 amp)
Protocol: (§5) Human lung adenocarcinoma cell line Calu-3 (ATCC) was cultured with 1×MEM complete medium (10% FBS, 1% double-antibiotics, 1% NEAA (Gibco), 2 mM glutamine and 1 mM of sodium pyruvate). Human breast cancer cell line SK-BR-3 was cultured with McCOY'S5A complete medium (10% FBS). Human colon cancer cell line SNU1040 (HER2 V777M positive) (ATCC) and human bronchoalveolar adenocarcinoma cell line NCI-H1781 (expressing HER2 exon 20 G776VC mutation) (ATCC) were cultured with 1×RPMI1640 complete medium (10% FBS), respectively.
as §1, §2, §3, §4

[2] = system: NCI-H1781 (HER2 exon 20 G776VC mutation); experiment: Growth inhibition GI50 in vitro (CCK8/MTT, 72 h); assay type: cell-based; settings: Homo sapiens, NCI-H1781; Table 16; 1000 nM to 0.03 nM serial dilution; read-out: GI50 H1781 (HER2 G776VC)
Protocol: as §5
as §1, with “Adherent cells were digested with 0.25% pancreatin-EDTA (Gibco). The suspension” for “The suspension”
as §2, §3
(§6) Adherent cell culture medium was discard and immediately replaced with fresh prepared medium which contains 10% CCK8 reagent (100 μL/well). For the suspension cells, CCK8 was directly added to 10% of the final concentration. The cells were continually incubated for 1˜4 h. When the color of control wells turned to dark yellow, the absorption value was measured at OD450 nm. The cell growth rate was calculated according to the following formula: cell growth rate (%)=100*(T−T0)/(C−T0), T=optical density of drug treatment cell well—optical density of blank control well; T0=optical density of cell well before drug treatment—optical density of blank control well; C=optical density of cell well of solvent control group—optical density of blank control well. The concentration value of 50% inhibition of cell growth (GI50) was calculated. The experiment was independently repeated 1˜3 times, and subject to biological statistical analysis.
(§7) Furthermore, the present compounds (99, 136, 205, 211, 212, 213, 216, 229, 230, 231, 232, 233 and 236) were selected to carry out growth inhibition test for HER2/ERBB2 gene amplified or high expressed or mutant tumor cells. Afatinib and AZD9291 were used for references as second- and third-generation inhibitors of EGFR.
(§8) Each compound started at 1000 nM as an initial concentration and was diluted by 2 times with serial dilution to 0.03 nM. The GI50 value of each compound was calculated according to Test Example 1.3.

[3] = system: SNU1040 (HER2 V777M positive); experiment: Growth inhibition GI50 in vitro (CCK8/MTT, 72 h); assay type: cell-based; settings: Homo sapiens; Table 16; 1000 nM to 0.03 nM serial dilution; read-out: GI50 SNU-1040 (HER2 V777M)
Protocol: as §5
as §1, with “Adherent cells were digested with 0.25% pancreatin-EDTA (Gibco). The suspension” for “The suspension”
as §2, §3, §6, §7, §8

H292 (EGFR WT) = experiment: Growth inhibition GI50 in vitro (CCK8/MTT, 72 h); assay type: cell-based; settings: Homo sapiens, NCI-H292; Table 15; 1000 nM to 0.03 nM serial dilution; read-out: GI50 H292 (EGFR WT)
Source text: EGFR wild type cell lines: human epidermal cancer cell line A431 (EGFR WT, amplification and high expression, from Shanghai Cell Bank of Chinese Academy of Sciences and ATCC), NSCLC cell lines NCI-H460 (EGFR WT, Kras G61H and PI3KCA E545K mutants, ATCC) and NCI-H1299 (EGFR WT, ATCC), melanoma cell line A375 (EGFR WT and BRAF V600E mutant, from Shanghai Cell Bank of Chinese Academy of Sciences, ATCC), human lung cancer cell line NCI-H292 (EGFR WT, from human lung mucoepidermoid carcinoma/lymphatic metastasis, purchased from Shanghai Cell Bank of Chinese Academy of Sciences) were cultured with 1×RPMI1640 complete medium which was supplement with 10% FBS. NSCLC cell line A549 (EGFR WT and Kras G12S mutant, from Shanghai Cell Bank of Chinese Academy of Sciences) was cultured with 1×Ham'S F12K complete medium which was supplement with 10% FBS, 1% double-antibiotics and 2 mM glutamine.
as §1, §2, §3, §4

A549 (EGFR WT) = experiment: Growth inhibition GI50 in vitro (CCK8/MTT, 72 h); assay type: cell-based, human; settings: Homo sapiens, A549
[4] = system: HER2/ErbB2 amplified cell line N87; experiment: In vivo tumor growth inhibition, xenograft; design: species or system Bab/c nude mice; settings: Mus musculus, po, 456 h, 25 mg/kg intragastric once daily, day 19, read-out: TGI (%)
Source text: Tumor xenograft models of immunodeficient mice are an effective tool to test the antitumor activity of the compound in vivo. Generally, the effectiveness of human tumor cell xenograft is positively correlated with the clinical treatment of human tumor. Bab/c immunodeficient mouse is one of the most commonly used xenograft animals with human tumor cells. In order to test whether the present compounds can inhibit the in vivo growth of the tumor cells expressing EGFR mutantion or HER2/ErbB2 overexpression, H1975, PC-9 and NCI-N87 cell lines were used in the experiments. When H1975, PC-9 and NCI-N87 cells were in growth logarithmic phase, they were digested with pancreatin. An appropriate amount of 1×RPMI1640 culture medium (serum-free) was added to stop digestion. The cells were collected to a 50 ml centrifuge tube (Corning), and centrifuged at 1700 rm for 3 min. The supernatant was discard, then the cells were suspended with 1×RPMI1640 culture medium and count the number. […] cells/mL was prepared and then placed on ice. 5˜10×10^6 (0.2 ml) cells were inoculated subcutaneously on the right side of the back of 6˜8 week old female Bab/c nude mice (about 20 g in weight). When the tumor average volume growed to 100˜200 mm^3, the mice were randomly divide into groups (3-6 mice per group), and marked by ear pierced tags and weighted. The test compounds and the reference compound (with a purity over 99% and individual impurity not higher than 0.2%) were formulated to emulsion suspension with CM (30% polyethylene glycol 400, 0.5% Tween-80 and 2.5% propylene glycol) respectively. Intragastric administration was continued once daily at a dosage of 25 mg/kg (0.1 ml/10 g mouse). The tumor was measured 3 times per week. When the average volume of the tumor in CM control group was up to 1500 mm^3 or after administration for 30 days, the experiment was ended.
The volume of tumor (V) was calculated as V=½*a*b^2 (a represents length of tumors, b represents width of tumors). Tumor growth inhibition (TGI) was calculated as: TGI (%)=100−(VT−VT0)/(VC−VC0)*100%; where VT0 and VT are the tumor volumes of the beginning and finish days of dosed groups; and VC0 and VC are the tumor volumes of the beginning and finish days for the control group, respectively.

[5] = Table 13, 72 h, read-out: Range of GI50 H1975 (EGFR L858R/T790M)
[6] = Table 15, 1000 nM to 0.03 nM serial dilution, read-out: GI50 H1975 (EGFR L858R/T790M)
[7] = Table 13, 72 h, read-out: Range of GI50 PC-9 (EGFR dE746-A750)
[8] = Table 15, 1000 nM to 0.03 nM serial dilution, read-out: GI50 PC-9 (EGFR dE746-A750)
[9] = Table 13, 72 h, read-out: Range of GI50 N87 (HER2 Amp)
[10] = Table 16, 1000 nM to 0.03 nM serial dilution, read-out: GI50 N87 (HER2 amp)
[11] = Table 13, 72 h, read-out: Range of GI50 A549 (EGFR WT)
[12] = Table 15, 1000 nM to 0.03 nM serial dilution, read-out: GI50 A549 (EGFR WT)

| SMILES | GI50 (H1975 (EGFR L858R/T790M); [5]) [nM] | GI50 (H1975 (EGFR L858R/T790M); [6]) [nM] | GI50 (PC-9 (EGFR dE746-A750); [7]) [nM] | GI50 (PC-9 (EGFR dE746-A750); [8]) [nM] | GI50 [1] [nM] | GI50 (N87 (HER2 Amp); [9]) [nM] | GI50 (N87 (HER2 Amp); [10]) [nM] | GI50 (Calu-3 (Her2 amp)) [nM] | GI50 [2] [nM] | GI50 [3] [nM] | GI50 (H292 (EGFR WT)) [nM] | GI50 (A549 (EGFR WT); [11]) [nM] | GI50 (A549 (EGFR WT); [12]) [nM] | inhibition in vivo at 25 mg/kg [4] [%] |
| --- | --- | --- | --- | --- | --- | --- | --- | --- | --- | --- | --- | --- | --- | --- |
| C=CC(=O)Nc1cc(Nc2cc(Nc3cc(OC)cc(C(F)(F)F)c3)ncn2)c(OC)cc1N(C)CCN(C)C [Compound 232, N-(5-(6-(3-methoxyl-5-trifluoromethyl-phenylamino)-pyrimidin-4-yl-amino)-2-((2-dimethylamino-ethyl)-methyl-amino)-4-methoxyl-phenyl)-acrylamide] | 10 to 100 | 16.9 | < 10 | 2.43 | 4.87 | < 10 | 1.92 | 2.49 | 1.02 | 6.82 | > 1000 | > 1000 | > 1000 |  |
| C=CC(=O)Nc1cc(Nc2cc(Nc3cc(F)cc(C(F)(F)F)c3)ncn2)c(OC)cc1N(C)CCN(C)C [Compound 230, N-(5-(6-(5-fluoro-3-trifluoromethyl-phenylamino)-pyrimidin-4-yl-amino)-2-((2-dimethylamino-ethyl)-methyl-amino)-4-methoxyl-phenyl)-acrylamide] | 10 to 100 | 19 | < 10 | 0.37 | 5.87 | < 10 | 3.9 | 2.67 | 1.91 | 13.2 | > 1000 | > 1000 | > 1000 |  |
| CN(C)C/C=C/C(=O)Nc1cc2c(Nc3ccc(F)c(Cl)c3)ncnc2cc1O[C@H]1CCOC1 [Afatinib, reference compound] |  |  |  |  |  |  | 1.25 | 2.62 | 1.17 | 79.1 |  |  |  | 98.3 |
| C=CC(=O)Nc1cc(Nc2cc(Nc3cc(C(F)(F)F)ccc3F)ncn2)c(OC)cc1N(C)CCN(C)C [Compound 231, N-(5-(6-(2-fluoro-5-trifluoromethyl-phenylamino)-pyrimidin-4-yl-amino)-2-((2-dimethylamino-ethyl)-methyl-amino)-4-methoxyl-phenyl)-acrylamide] | 10 to 100 | 19.5 | < 10 | 0.19 | 3.13 | < 10 | 4.21 | 5.6 | 1.79 | 6.75 | > 1000 | > 1000 | > 1000 |  |
| C=CC(=O)Nc1cc(Nc2cc(Nc3cc(C(F)(F)F)ccc3OC)ncn2)c(OC)cc1N(C)CCN(C)C [Compound 233, N-(5-(6-(2-methoxyl-5-trifluoromethyl-phenylamino)-pyrimidin-4-yl-amino)-2-((2-dimethylamino-ethyl)-methyl-amino)-4-methoxyl-phenyl)-acrylamide] | 10 to 100 | 19.2 | < 10 | 0.49 | 4.19 | < 10 | 0.95 | 0.98 | 0.87 | 7.21 | > 1000 | > 1000 | > 1000 |  |
